Tests used:
[1] = system: HPRT1 mRNA in mouse liver; experiment: In vivo knockdown of HPRT1 mRNA in mouse liver, lipid particles with DsiRNA; conditions: CD1 mice; for % mRNA Knockdown: single IV dose 5 mg/kg, HPRT1 DsiRNA; for % mRNA Knockdown / mrna remaining at 5 mg/kg: 48 hours; for gene silencing at the lower dose: single dose 1 mg/kg, FIG. 12; for mrna remaining at 5 mg/kg: Mus musculus, single dose 5 mg/kg, FIG. 11, read-out: remaining mRNA levels
Experimental: Formulations were prepared with the following approximate percentages: 20 mol % of one of either L-1, L-2, L-5, L-6, L-7, L-8, L-22, or L-30; 26 mol % of DODMA; 3 mol % of PEG2000-DMPE; 3 mol % of PEG2000-DMG; 13 mol % of DSPC; and 33 mol % of cholesterol. The formulation further included a DsiRNA:total lipid ratio of about 1:20 (w/w).
Approximately 4-week old CD1 female mice were administered a single dose (either 1 mg/kg or 5 mg/kg) of the lipid particle formulation with a dosing volume of 10 μL/g of body weight by intravenous administration via a tail vein. After 48 hours (post-dosing), tissues were collected in RNALater (Qiagen). In the end point analysis, the total RNA was isolated from the mouse liver for RT-qPCR. The RNA sample was heated at 70° C., for 5 minutes with Oligo(dT) primers before RT. In the PCR reaction, mHPRT expression was normalized with RPL23 (a housekeeping gene, used as a control herein). FIGS. 11 and 12 show data with error bars with mean±SD for n=5 animals/group.

[2] = system: HPRT1 mRNA in liver tissues; experiment: HepG2 orthotopic liver tumor model: HPRT1 mRNA knockdown in liver; format: in vivo, mouse; conditions: 5 mg/kg DsiRNA IV, Table 8 formulation, FIG. 14
Excerpt: In order to assess the efficiency of targeting and subsequent functionality of an amino-amine or amino-amide cationic lipid formulation of dsRNA, a second intrahepatic tumor model was utilized. Liver tumors were established in mice by direct intrahepatic injection of HepG2 tumor cells. Female nu/nu mice were used as hosts for the HepG2 tumors. Maintaining the mice under anesthesia using Avertin (Sigma), a single 1-cm incision across the midline was made below the sternum, and the left lateral hepatic lobe is exteriorized. Approximately 3×10^6 HepG2 cells suspended in 60 μL of 50% PBS/50% Matrigel™ (BD) are injected slowly into the lobe at a shallow angle using a Hamilton syringe and a 30-gauge needle. A swab was then applied to the puncture wound to stop any bleeding prior to suturing. Mice were allowed to recover from anesthesia in a sterile cage and monitored closely for 2-4 hours before being returned to conventional housing. About three weeks after tumor implantation, mice were randomized into treatment groups. […] The dose was calculated based on mg of dsRNAs/kg of body weight basis according to individual animal weights. […] Body weights were monitored throughout the duration of the study as an indicator of developing tumor burden and treatment tolerability. For efficacy studies, defined humane end points were determined as a surrogate for survival. […]

Hep3B tumor = experiment: Hepatocellular carcinoma anti-tumor efficacy, orthotopic Hep3B model (serum AFP, tumor weight); format: in vivo, mouse; conditions: 5 mg/kg active DsiRNA IV, vs control payload and PBS; for reducing serum AFP: FIG. 15; for reducing tumor weight: FIG. 16
Excerpt: Liver tumors were established in mice by direct intrahepatic injection of Hep3B tumor cells as described in Example 10. About two weeks after tumor implantation, mice were randomized into treatment groups. Mice (n=6 per group) received: either (1) the amino-amine or amino-amide lipid formulation of a control dsRNA; (2) the amino-amine or amino-amide lipid formulation of an active dsRNA; or (3) vehicle control, as administered by standard intravenous (i.v.) injection via the lateral tail vein. The dose was calculated based on mg of dsRNAs/kg of body weight basis according to individual animal weights. In the experiments that generated the results shown in FIGS. 15 and 16, animals were dosed at 5 mg/kg DsiRNA with L-6- or L-30-formulated lipid particles. Table 8 above presents specific compositions of lipid formulations comprising the L-6 and L-30 lipids used in the instant studies.
Body weights were monitored throughout the duration of the study as an indicator of developing tumor burden and treatment tolerability. For efficacy studies, defined humane end points were determined as a surrogate for survival. Assessments were made based on a combination of clinical signs, weight loss, and abdominal distension to define the day of euthanization due to tumor burden. Tumor tissues were removed from the animals of different treatment groups and tumor weights were measured to determine efficacy of different treatment groups. Serum α-fetoprotein (AFP) levels were also measured as a biomarker for tumor burden.

[3] = Tolerability of lipid formulations in CD-1 mice (serum clinical chemistry, body weight, liver); format: in vivo, mouse; conditions: female CD-1 mice, 2 doses (qod) 10 mg/kg DsiRNA
Experimental: In order to assess the tolerability of a lipid formulation containing an amino-amine or amino-amide cationic lipid of the invention and a dsRNA, female CD-1 mice were injected with L-6 and L-30 formulations [administered in 2 doses (qod) at 10 mg/kg DsiRNA dose, about 200 mg/kg total lipid dose each] and serum samples were collected 48 hours after the second dose. Serum samples were tested for a panel of clinical chemistry assessments, including liver function tests (LFTs) via measurement of enzymes alanine transaminase (ALT) and aspartate transaminase (AST). Phosphate buffered saline (PBS) was used as vehicle control group. ALT and AST elevation was <3x of PBS group for formulations L-6 and L-30. There were also no changes in body weight or liver observed for L-6 and L-30 formulations. Thus, L-6 and L-30 formulations were well-tolerated. Thus, any of the lipids described herein, and formulations thereof, would be useful for the delivery of one or more agent, e.g., polyanionic or antisense payloads.

[4] = TNS fluorescence method, apparent pKa of lipid in formulation; format: physicochemical; conditions: apparent pKa of the formulation, pH at half-maximal TNS fluorescence
Excerpt: The TNS fluorescence method may be used to determine the apparent pKa of the lipid in the formulation. TNS (2-(p-toluidino)-6-naphthalene sulfonic acid) is a negatively charged fluorescent dye whose fluorescence is quenched in the presence of water. […] The increase in the fluorescence can thus be used to estimate the ionization of a cationic lipid when present in different pH environment. Methods of determining pKa using TNS are known in the art, e.g., as described in the Examples.
To determine pKa values of the cationic lipids of the invention, formulations (concentration of 1 mM) were incubated in phosphate buffer at different pH values, to which TNS dissolved in DMSO was added (resulting final concentration of 6 μM TNS). Fluorescence of the resulting solution was measured on a SpectraMax® M3 fluorescence plate reader with excitation wavelength of 325 nm and emission wavelength of 435 nm. The measured fluorescence of TNS was fitted with a three-parameter sigmoidal function shown in equation 1.
The pH at which half of the maximum fluorescence was reached was reported as the apparent pKa of the formulation, where a and b are dimensionless parameters reflecting the maximum observed fluorescence and slope of the sigmoidal function, respectively.

SMILES | % mRNA Knockdown [1] | gene silencing at the lower dose [1] | mrna remaining at 5 mg/kg [1] | delivery of anti-HPRT1 DsiRNA payload to liver tissues [2] | reducing serum AFP (Hep3B tumor) | reducing tumor weight (Hep3B tumor) | changes in body weight or liver [3] | tolerability [3] | pKa [4]
CCCCC/C=C\C/C=C\CCCCCCCCC(CCCCCCCC/C=C\C/C=C\CCCCC)NC(=O)CN(C)C [Compound L-30] | 86.4% | effective gene silencing | ~15% | remarkably effective | remarkably effective | remarkably effective | no changes | well-tolerated | 5.8
CCCCC/C=C\C/C=C\CCCCCCCCC(CCCCCCCC/C=C\C/C=C\CCCCC)N1CCN(C)CC1 [Compound L-6] | 88.2% | effective gene silencing | 15 to 45% | remarkably effective | remarkably effective | remarkably effective | no changes | well-tolerated | 5.6

Reference: US11059807B2, “Amine cationic lipids and uses thereof” (Dicerna Pharmaceuticals, Inc., priority 2011, dated 2021)
